The values that follow come from patent US11168083B2, “Inhibitors of Plasma Kallikrein and uses thereof” (Takeda Pharmaceutical Company Limited, priority 2017, dated 2021).

For this assay, the target named is human activated kallikrein enzyme (Homo sapiens (Human), UniProt P03952). The assay can be described thus: Inhibition of human activated kallikrein enzyme, fluorogenic peptide substrate assay (two formats). The assay is classed as biochemical. To be noted: Table 2; column head prints nM, ranges defined in μM; read-out: pKal EC50. How it is done:
The example compounds were evaluated for inhibition of the human activated kallikrein enzyme in two formats of an assay employing a fluorogenic peptide substrate. In one assay format, the concentrations of reagents were as follows: 20 mM Tris pH 7.5, 1 mM EDTA, 150 mM sodium chloride, 0.1% PEG-400, 0.1% Triton X-100, 500 pM activated kallikrein enzyme, 300 uM Pro-Phe-Arg-7-amido-4-methylcoumarin substrate. Prior to reaction initiation with substrate, enzyme and inhibitors were preincubated for 30 min at room temperature. After initiation with substrate, reactions were incubated for 10 min at room temperature and fluorescence emission at 460 nm from 380 nm excitation measured with a microplate reader. In another assay format, the concentrations of reagents were as follows: 20 mM Tris pH 7.5, 1 mM EDTA, 150 mM sodium chloride, 0.1% PEG-400, 0.1% Triton X-100, 5 pM activated kallikrein enzyme, 300 uM Pro-Phe-Arg-7-amido-4-methylcoumarin substrate. Prior to reaction initiation with substrate, enzyme and inhibitors were preincubated for 30 min at room temperature. After initiation with substrate, reactions were incubated for 18 hr at room temperature and fluorescence emission at 460 nm from 380 nm excitation measured with a microplate reader.

human activated kallikrein enzyme, sequence (P03952 391-638): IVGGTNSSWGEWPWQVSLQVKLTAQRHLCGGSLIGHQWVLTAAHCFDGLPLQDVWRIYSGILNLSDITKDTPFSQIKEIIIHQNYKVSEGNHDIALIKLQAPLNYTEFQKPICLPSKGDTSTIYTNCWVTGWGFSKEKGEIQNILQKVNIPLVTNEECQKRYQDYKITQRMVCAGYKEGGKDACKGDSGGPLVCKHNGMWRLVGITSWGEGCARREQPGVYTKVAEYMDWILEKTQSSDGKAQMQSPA
human activated kallikrein enzyme, sequence (P03952 20-390 partner): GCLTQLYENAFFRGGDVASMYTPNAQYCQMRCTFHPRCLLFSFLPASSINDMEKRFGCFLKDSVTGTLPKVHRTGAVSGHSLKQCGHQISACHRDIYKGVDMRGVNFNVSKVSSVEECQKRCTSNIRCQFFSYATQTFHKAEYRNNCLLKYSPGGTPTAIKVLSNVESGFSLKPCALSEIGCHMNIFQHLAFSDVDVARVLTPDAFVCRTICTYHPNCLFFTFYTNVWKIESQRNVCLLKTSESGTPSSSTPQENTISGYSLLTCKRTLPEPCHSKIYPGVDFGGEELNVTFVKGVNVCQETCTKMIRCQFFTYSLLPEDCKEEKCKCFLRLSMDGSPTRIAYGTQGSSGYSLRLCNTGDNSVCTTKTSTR

With `Nc1nccc2cc(CNC(=O)c3csc([C@@H]4C[C@@H](N)CN4C(=O)c4cn5cc(Cl)ccc5n4)n3)ccc12` [Compound 49, 2-((2S,4R)-4-amino-1-(6-chloroimidazo[1,2-a]pyridine-2-carbonyl)pyrrolidin-2-yl)-N-((1-aminoisoquinolin-6-yl)methyl)thiazole-4-carboxamide], the EC50 (usually the midpoint of the concentration-response curve) is no more than 100 nM. Regarding `CNC(=O)[C@H](CCCCNC(=N)N)NC(=O)c1csc([C@@H]2C[C@@H](N)CN2C(=O)c2cc3c(Cl)cccc3s2)n1` [Compound 63, 2-((2S,4R)-4-amino-1-(4-chlorobenzo[b]thiophene-2-carbonyl)pyrrolidin-2-yl)-N—((S)-6-guanidino-1-(methylamino)-1-oxohexan-2-yl)thiazole-4-carboxamide], the 50% effective concentration (EC50) was in the range of 1000 to 5000 nM. As for `N=C(N)NCCCC[C@H](NC(=O)c1csc([C@@H]2C[C@@H](N)CN2C(=O)c2cn3cc(Cl)ccc3n2)n1)C(=O)O` [Compound 23, N^2-(2-((2S,4R)-4-amino-1-(6-chloroimidazo[1,2-a]pyridine-2-carbonyl)pyrrolidin-2-yl)thiazole-4-carbonyl)-N6-carbamimidoyl-L-lysine], the figure is no more than 100 nM; as for `CNC(=O)[C@H](CCCCNC(=N)N)NC(=O)c1csc([C@@H]2C[C@@H](O)CN2C(=O)c2cn3cc(Cl)ccc3n2)n1` [Compound 38, 2-((2S,4R)-1-(6-Chloroimidazo[1,2-a]pyridine-2-carbonyl)-4-hydroxypyrrolidin-2-yl)-N—((S)-6-guanidino-1-(methylamino)-1-oxohexan-2-yl)thiazole-4-carboxamide], greater than 9900 nM. As for `CNC(=O)[C@@H](CCCCNC(=N)N)NC(=O)c1csc([C@@H]2C[C@@H](N)CN2C(=O)c2cn3cc(Cl)ccc3n2)n1` [Compound 12, 2-((2S,4R)-4-amino-1-(6-chloroimidazo[1,2-a]pyridine-2-carbonyl)pyrrolidin-2-yl)-N—((R)-6-guanidino-1-(methylamino)-1-oxohexan-2-yl)thiazole-4-carboxamide], the figure is no more than 100 nM. As for `CNC(=O)[C@H](CCCCNC(=N)N)NC(=O)c1csc([C@H]2C[C@@H](O)CN2C(=O)c2cn3cc(Cl)ccc3n2)n1` [Compound 9, 2-((2R,4R)-1-(6-Chloroimidazo[1,2-a]pyridine-2-carbonyl)-4-hydroxypyrrolidin-2-yl)-N—((S)-6-guanidino-1-(methylamino)-1-oxohexan-2-yl)thiazole-4-carboxamide], the figure is greater than 9900 nM. On to `CNC(=O)[C@H](CCCCNC(N)=O)NC(=O)c1csc([C@@H]2C[C@@H](N)CN2C(=O)c2cn3cc(Cl)ccc3n2)n1` [Compound 27, 2-((2S,4R)-4-amino-1-(6-chloroimidazo[1,2-a]pyridine-2-carbonyl)pyrrolidin-2-yl)-N—((S)-1-(methylamino)-1-oxo-6-ureidohexan-2-yl)thiazole-4-carboxamide], for which the EC50 is greater than 9900 nM. As for `N[C@@H]1C[C@@H](c2nc(C(=O)NCc3ncn4ccc(Cl)cc34)cs2)N(C(=O)c2cn3cc(Cl)ccc3n2)C1` [Compound 55, 2-((2S,4R)-4-amino-1-(6-chloroimidazo[1,2-a]pyridine-2-carbonyl)pyrrolidin-2-yl)-N-((7-chloroimidazo[1,5-a]pyridin-1-yl)methyl)thiazole-4-carboxamide], the figure is 100 to 1000 nM. On to `N=C(N)c1ccc(CNC(=O)c2csc([C@@H]3C[C@@H](N)CN3C(=O)c3cn4cc(Cl)ccc4n3)n2)cc1` [Compound 47, 2-((2S,4R)-4-amino-1-(6-chloroimidazo[1,2-a]pyridine-2-carbonyl)pyrrolidin-2-yl)-N-(4-carbamimidoylbenzyl)thiazole-4-carboxamide], for which the concentration for a half-maximal effect (EC50) was no more than 100 nM. For `CNC(=O)[C@H](CCCCNC(=N)N)NC(=O)c1csc([C@@H]2C[C@@H](N)CN2C(=O)c2cn3cc(OC)ccc3n2)n1` [Compound 20, 2-((2S,4R)-4-amino-1-(6-methoxyimidazo[1,2-a]pyridine-2-carbonyl)pyrrolidin-2-yl)-N—((S)-6-guanidino-1-(methylamino)-1-oxohexan-2-yl)thiazole-4-carboxamide], the EC50 is 100 to 1000 nM. In the case of `CNC(=O)[C@H](CCCCNC(=N)N)NC(=O)c1csc([C@@H]2C[C@@H](N)CN2C(=O)c2cn3cc(I)ccc3n2)n1` [Compound 21, 2-((2S,4R)-4-amino-1-(6-iodoimidazo[1,2-a]pyridine-2-carbonyl)pyrrolidin-2-yl)-N—((S)-6-guanidino-1-(methylamino)-1-oxohexan-2-yl)thiazole-4-carboxamide] it was no more than 100 nM; in that of `NCc1ccc(CCNC(=O)c2csc([C@@H]3C[C@@H](N)CN3C(=O)c3cn4cc(Cl)ccc4n3)n2)cc1` [Compound 54, 2-((2S,4R)-4-amino-1-(6-chloroimidazo[1,2-a]pyridine-2-carbonyl)pyrrolidin-2-yl)-N-(4-(aminomethyl)phenethyl)thiazole-4-carboxamide], 1000 to 5000 nM. In the case of `CNC(=O)[C@H](CCCCNC(=N)N)NC(=O)c1csc([C@@H]2C[C@@H](N)CN2C(=O)c2ccc3ccccc3c2)n1` [Compound 40, 2-((2S,4R)-1-(2-naphthoyl)-4-aminopyrrolidin-2-yl)-N—((S)-6-guanidino-1-(methylamino)-1-oxohexan-2-yl)thiazole-4-carboxamide] it was 1000 to 5000 nM.

Consider `CNC(=O)[C@H](CCCCNC(=N)N)NC(=O)c1csc([C@@H]2C[C@@H](N)CN2C(=O)c2cc3cc(C(F)(F)F)ccc3s2)n1` [Compound 64, 2-((2S,4R)-4-amino-1-(5-(trifluoromethyl)benzo[b]thiophene-2-carbonyl)pyrrolidin-2-yl)-N—((S)-6-guanidino-1-(methylamino)-1-oxohexan-2-yl)thiazole-4-carboxamide], for which the EC50 was 100 to 1000 nM. In the case of `CNC(=O)[C@H](CCCCNC(=N)N)NC(=O)c1csc([C@@H]2C[C@H](N)CN2C(=O)c2cn3cc(Cl)ccc3n2)n1` [Compound 36, 2-((2S,4S)-4-amino-1-(6-chloroimidazo[1,2-a]pyridine-2-carbonyl)pyrrolidin-2-yl)-N—((S)-6-guanidino-1-(methylamino)-1-oxohexan-2-yl)thiazole-4-carboxamide] it was no more than 100 nM. With `N[C@@H]1C[C@@H](c2nc(C(=O)NCc3n[nH]c4cc(Cl)ccc34)cs2)N(C(=O)c2cn3cc(Cl)ccc3n2)C1` [Compound 59, 2-((2S,4R)-4-amino-1-(6-chloroimidazo[1,2-a]pyridine-2-carbonyl)pyrrolidin-2-yl)-N-((6-chloro-1H-indazol-3-yl)methyl)thiazole-4-carboxamide], the EC50 is greater than 9900 nM. In the case of `CNC(=O)[C@@H](CCCCNC(=N)N)NC(=O)c1csc([C@@H]2C[C@@H](O)CN2C(=O)c2cn3cc(Cl)ccc3n2)n1` [Compound 39, 2-((2S,4R)-1-(6-Chloroimidazo[1,2-a]pyridine-2-carbonyl)-4-hydroxypyrrolidin-2-yl)-N—((R)-6-guanidino-1-(methylamino)-1-oxohexan-2-yl)thiazole-4-carboxamide] it was 5000 to 9900 nM; in that of `CNC(=O)[C@H](CCC(N)=O)NC(=O)c1csc([C@@H]2C[C@@H](N)CN2C(=O)c2cn3cc(Cl)ccc3n2)n1` [Compound 29, (S)-2-(2-((2S,4R)-4-amino-1-(6-chloroimidazo[1,2-a]pyridine-2-carbonyl)pyrrolidin-2-yl)thiazole-4-carboxamido)-N1-methylpentanediamide], greater than 9900 nM.

For the molecule `CNC(=O)[C@H](CCCCNC(=N)N)NC(=O)c1csc([C@@H]2C[C@@H](N)CN2C(=O)c2cc3ccc(C)cc3s2)n1` [Compound 65, 2-((2S,4R)-4-amino-1-(6-methylbenzo[b]thiophene-2-carbonyl)pyrrolidin-2-yl)-N—((S)-6-guanidino-1-(methylamino)-1-oxohexan-2-yl)thiazole-4-carboxamide], the EC50 was 100 to 1000 nM.

On to `CN(C)C(=O)[C@H](CCCCNC(=N)N)NC(=O)c1csc([C@@H]2C[C@@H](N)CN2C(=O)c2cn3cc(Cl)ccc3n2)n1` [Compound 24, 2-((2S,4R)-4-amino-1-(6-chloroimidazo[1,2-a]pyridine-2-carbonyl)pyrrolidin-2-yl)-N—((S)-1-(dimethylamino)-6-guanidino-1-oxohexan-2-yl)thiazole-4-carboxamide], for which the EC50 lay within 100 to 1000 nM. Turning to `CNC(=O)[C@H](CCCCNC(=N)N)NC(=O)c1csc([C@@H]2C[C@@H](N)CN2C(=O)c2nc3cc(Cl)ccc3s2)n1` [Compound 45, 2-((2S,4R)-4-amino-1-(5-chlorobenzo[d]thiazole-2-carbonyl)pyrrolidin-2-yl)-N—((S)-6-guanidino-1-(methylamino)-1-oxohexan-2-yl)thiazole-4-carboxamide], the EC50 is no more than 100 nM. `N=C(N)NCCCCCNC(=O)c1csc([C@@H]2C[C@@H](N)CN2C(=O)c2cn3cc(Cl)ccc3n2)n1` [Compound 46, 2-((2S,4R)-4-amino-1-(6-chloroimidazo[1,2-a]pyridine-2-carbonyl)pyrrolidin-2-yl)-N-(5-guanidinopentyl)thiazole-4-carboxamide]: the EC50 is 100 to 1000 nM. As to `CNC(=O)[C@@H](CCCCNC(=N)N)NC(=O)c1csc([C@H]2CCCN2C(=O)c2cn3cc(Cl)ccc3n2)n1` [Compound 4, 2-((R)-1-(6-Chloroimidazo[1,2-a]pyridine-2-carbonyl)pyrrolidin-2-yl)-N—((R)-6-guanidino-1-(methylamino)-1-oxohexan-2-yl)thiazole-4-carboxamide], the EC50 is greater than 9900 nM.
